Test results published in US9302999B2, “Substituted triazoles as herbicides” (E. I. DU PONT DE NEMOURS AND COMPANY, priority 2012, dated 2016).

Key:
Format in all cases: in vivo
[1] = system: barnyardgrass (Echinochloa crus-galli); test: Test C flooded paddy test: barnyardgrass; settings: scale 0 to 100 (0 no effect, 100 complete control)
Summary of the method: (§1)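 Plants at 2-leaf stage in pots flooded 3 cm above soil; compounds applied directly into the paddy water, depth maintained. Visual rating against controls after 13–15 days in greenhouse, scale 0 (no effect) to 100 (complete control).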

[2] = system: morningglory (Ipomoea spp.); test: Test A pre-/postemergence: morningglory; settings: for Morningglory plant response rating: Postemergence; for Plant response rating, Morningglory: Preemergence
Summary of the method: (§2)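 Plants in loam–sand blend were treated with test chemicals in non-phytotoxic solvent with surfactant, either as preemergence directed soil spray or postemergence at 2–10 cm, one- to two-leaf stage. After about ten days in greenhouse, injury was rated visually against untreated controls on a 0–100 scale (100 = complete control).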

rice (Oryza sativa) = test: Test C flooded paddy test: rice; settings: scale 0 to 100 (0 no effect, 100 complete control)
Summary of the method: as §1

[3] = system: sedge, umbrella (small-flower umbrella sedge, Cyperus difformis); test: Test C flooded paddy test: sedge, umbrella; settings: scale 0 to 100 (0 no effect, 100 complete control)
Summary of the method: as §1

[4] = system: pigweed (Amaranthus retroflexus); test: Test A pre-/postemergence: pigweed; settings: for Pigweed plant response rating: Postemergence; for Plant response rating, Pigweed: Preemergence
Summary of the method: as §2

[5] = system: crabgrass, large (large crabgrass, Digitaria sanguinalis); test: Test A pre-/postemergence: crabgrass, large; settings: for Crabgrass, Large plant response rating: Postemergence; for Plant response rating, Crabgrass, Large: Preemergence
Summary of the method: as §2

[6] = system: barnyardgrass (Echinochloa crus-galli); test: Test A pre-/postemergence: barnyardgrass; settings: for Barnyardgrass plant response rating: Postemergence; for Plant response rating, Barnyardgrass: Preemergence
Summary of the method: as §2

[7] = system: wheat (Triticum aestivum); test: Test A pre-/postemergence: wheat; settings: for Wheat plant response rating: Postemergence; for Plant response rating, Wheat: Preemergence
Summary of the method: as §2

corn (Zea mays) = test: Test A pre-/postemergence: corn; settings: for Corn plant response rating: Postemergence; for Plant response rating, Corn: Preemergence
Summary of the method: as §2

[8] = system: ducksalad (Heteranthera limosa); test: Test C flooded paddy test: ducksalad; settings: scale 0 to 100 (0 no effect, 100 complete control)
Summary of the method: as §1

[9] = system: foxtail, giant (giant foxtail, Setaria faberii); test: Test A pre-/postemergence: foxtail, giant; settings: for Foxtail, Giant plant response rating: Postemergence; for Plant response rating, Foxtail, Giant: Preemergence
Summary of the method: as §2

[10] = system: velvetleaf (Abutilon theophrasti); test: Test A pre-/postemergence: velvetleaf; settings: for Velvetleaf plant response rating: Postemergence; for Plant response rating, Velvetleaf: Preemergence
Summary of the method: as §2

[11] = Flood (flooded paddy test), 62 g ai/ha, visual rating after 13 to 15 days
[12] = Flood (flooded paddy test), 250 g ai/ha, visual rating after 13 to 15 days
[13] = 125 g ai/ha, 0 to 100 scale, 0 is no effect, 100 is complete control
[14] = 500 g ai/ha, visual rating on 0 to 100 scale (0 no effect, 100 complete control), approximately ten days
[15] = 125 g ai/ha, 0 to 100 scale (0 no effect, 100 complete control)
[16] = 500 g ai/ha, 0 to 100 scale, 0 is no effect, 100 is complete control
[17] = Flood (flooded paddy test), 125 g ai/ha, visual rating after 13 to 15 days

Cc1nn(-c2ccc(Cl)cc2)nc1C(=O)c1cccc(C(F)(F)F)c1 [Compound 42]
Plant response rating, Barnyardgrass [1, 11]: 0
Plant response rating, Barnyardgrass [1, 12]: 0
Morningglory plant response rating [2, 13]: 10
Morningglory plant response rating [2, 14]: 50
Plant response rating, Morningglory [2, 15]: 0
Plant response rating, Morningglory [2, 16]: 10
Plant response rating, Rice (rice (Oryza sativa); [11]): 0
Plant response rating, Rice (rice (Oryza sativa); [12]): 0
Plant response rating, Sedge, Umbrella [3, 11]: 0
Plant response rating, Sedge, Umbrella [3, 12]: 0
Pigweed plant response rating [4, 13]: 50
Pigweed plant response rating [4, 14]: 90
Plant response rating, Pigweed [4, 15]: 10
Plant response rating, Pigweed [4, 16]: 60
Crabgrass, Large plant response rating [5, 13]: 10
Crabgrass, Large plant response rating [5, 14]: 30
Plant response rating, Crabgrass, Large [5, 15]: 10
Plant response rating, Crabgrass, Large [5, 16]: 50
Barnyardgrass plant response rating [6, 13]: 0
Barnyardgrass plant response rating [6, 14]: 10
Plant response rating, Barnyardgrass [6, 15]: 0
Plant response rating, Barnyardgrass [6, 16]: 10
Wheat plant response rating [7, 13]: 0
Wheat plant response rating [7, 14]: 10
Plant response rating, Wheat [7, 15]: 0
Plant response rating, Wheat [7, 16]: 0
Corn plant response rating (corn (Zea mays); [13]): 10
Corn plant response rating (corn (Zea mays); [14]): 10
Plant response rating, Corn (corn (Zea mays); [15]): 0
Plant response rating, Corn (corn (Zea mays); [16]): 0
Plant response rating, Ducksalad [8, 11]: 0
Plant response rating, Ducksalad [8, 12]: 0
Foxtail, Giant plant response rating [9, 13]: 10
Foxtail, Giant plant response rating [9, 14]: 20
Plant response rating, Foxtail, Giant [9, 15]: 10
Plant response rating, Foxtail, Giant [9, 16]: 70
Velvetleaf plant response rating [10, 13]: 10
Velvetleaf plant response rating [10, 14]: 20
Plant response rating, Velvetleaf [10, 15]: 0
Plant response rating, Velvetleaf [10, 16]: 0

Cc1nn(-c2ccc(C(F)(F)F)cc2)nc1C(=O)c1cccc(C(F)(F)F)c1 [Compound 45]
Plant response rating, Barnyardgrass [1, 11]: 0
Plant response rating, Barnyardgrass [1, 17]: 0
Plant response rating, Barnyardgrass [1, 12]: 0
Plant response rating, Barnyardgrass ([1]; Flood, 31 g ai/ha): 0
Morningglory plant response rating [2, 13]: 40
Morningglory plant response rating [2, 14]: 80
Plant response rating, Morningglory [2, 15]: 0
Plant response rating, Morningglory [2, 16]: 10
Plant response rating, Rice (rice (Oryza sativa); [11]): 0
Plant response rating, Rice (rice (Oryza sativa); [17]): 0
Plant response rating, Rice (rice (Oryza sativa); [12]): 0
Plant response rating, Rice (rice (Oryza sativa); Flood, 31 g ai/ha): 0
Plant response rating, Sedge, Umbrella [3, 11]: 0
Plant response rating, Sedge, Umbrella [3, 17]: 0
Plant response rating, Sedge, Umbrella [3, 12]: 0
Plant response rating, Sedge, Umbrella ([3]; Flood, 31 g ai/ha): 0
Pigweed plant response rating [4, 13]: 100
Pigweed plant response rating [4, 14]: 100
Plant response rating, Pigweed [4, 15]: 10
Plant response rating, Pigweed [4, 16]: 20
Crabgrass, Large plant response rating [5, 13]: 60
Crabgrass, Large plant response rating [5, 14]: 70
Plant response rating, Crabgrass, Large [5, 15]: 70
Plant response rating, Crabgrass, Large [5, 16]: 70
Barnyardgrass plant response rating [6, 13]: 10
Barnyardgrass plant response rating [6, 14]: 10
Plant response rating, Barnyardgrass [6, 15]: 0
Plant response rating, Barnyardgrass [6, 16]: 10
Wheat plant response rating [7, 13]: 10
Wheat plant response rating [7, 14]: 20
Plant response rating, Wheat [7, 15]: 0
Plant response rating, Wheat [7, 16]: 0
Corn plant response rating (corn (Zea mays); [13]): 10
Corn plant response rating (corn (Zea mays); [14]): 20
Plant response rating, Corn (corn (Zea mays); [15]): 0
Plant response rating, Corn (corn (Zea mays); [16]): 0
Plant response rating, Ducksalad [8, 11]: 0
Plant response rating, Ducksalad [8, 17]: 0
Plant response rating, Ducksalad [8, 12]: 0
Plant response rating, Ducksalad ([8]; Flood, 31 g ai/ha): 0
Foxtail, Giant plant response rating [9, 13]: 20
Foxtail, Giant plant response rating [9, 14]: 50
Plant response rating, Foxtail, Giant [9, 15]: 50
Plant response rating, Foxtail, Giant [9, 16]: 60
Velvetleaf plant response rating [10, 13]: 40
Velvetleaf plant response rating [10, 14]: 70
Plant response rating, Velvetleaf [10, 15]: 0
Plant response rating, Velvetleaf [10, 16]: 10

Cc1nn(-c2cnc(Cl)cn2)nc1C(=O)c1cccc(C(F)(F)F)c1 [Compound 50]
Plant response rating, Barnyardgrass [1, 11]: 0
Plant response rating, Barnyardgrass [1, 12]: 0
Morningglory plant response rating [2, 13]: 0
Morningglory plant response rating [2, 14]: 10
Plant response rating, Morningglory [2, 15]: 0
Plant response rating, Morningglory [2, 16]: 0
Plant response rating, Rice (rice (Oryza sativa); [11]): 0
Plant response rating, Rice (rice (Oryza sativa); [12]): 0
Plant response rating, Sedge, Umbrella [3, 11]: 0
Plant response rating, Sedge, Umbrella [3, 12]: 0
Pigweed plant response rating [4, 13]: 10
Pigweed plant response rating [4, 14]: 20
Plant response rating, Pigweed [4, 15]: 0
Plant response rating, Pigweed [4, 16]: 10
Crabgrass, Large plant response rating [5, 13]: 0
Crabgrass, Large plant response rating [5, 14]: 10
Plant response rating, Crabgrass, Large [5, 15]: 10
Plant response rating, Crabgrass, Large [5, 16]: 20
Barnyardgrass plant response rating [6, 13]: 0
Barnyardgrass plant response rating [6, 14]: 10
Plant response rating, Barnyardgrass [6, 15]: 0
Plant response rating, Barnyardgrass [6, 16]: 0
Wheat plant response rating [7, 13]: 0
Wheat plant response rating [7, 14]: 0
Plant response rating, Wheat [7, 15]: 0
Plant response rating, Wheat [7, 16]: 0
Corn plant response rating (corn (Zea mays); [13]): 0
Corn plant response rating (corn (Zea mays); [14]): 10
Plant response rating, Corn (corn (Zea mays); [15]): 0
Plant response rating, Corn (corn (Zea mays); [16]): 0
Plant response rating, Ducksalad [8, 11]: 0
Plant response rating, Ducksalad [8, 12]: 0
Foxtail, Giant plant response rating [9, 13]: 0
Foxtail, Giant plant response rating [9, 14]: 10
Plant response rating, Foxtail, Giant [9, 15]: 10
Plant response rating, Foxtail, Giant [9, 16]: 40
Velvetleaf plant response rating [10, 13]: 0
Velvetleaf plant response rating [10, 14]: 10
Plant response rating, Velvetleaf [10, 15]: 0
Plant response rating, Velvetleaf [10, 16]: 0

Cc1nn(-c2ccc(C(F)(F)F)cc2)nc1Cc1cnn(CC(F)(F)F)c1 [Compound 51]
Plant response rating, Barnyardgrass [1, 11]: 0
Plant response rating, Barnyardgrass [1, 12]: 0
Morningglory plant response rating [2, 13]: 0
Morningglory plant response rating [2, 14]: 10
Plant response rating, Morningglory [2, 15]: 0
Plant response rating, Morningglory [2, 16]: 0
Plant response rating, Rice (rice (Oryza sativa); [11]): 0
Plant response rating, Rice (rice (Oryza sativa); [12]): 0
Plant response rating, Sedge, Umbrella [3, 11]: 0
Plant response rating, Sedge, Umbrella [3, 12]: 0
Pigweed plant response rating [4, 13]: 10
Pigweed plant response rating [4, 14]: 60
Plant response rating, Pigweed [4, 15]: 0
Plant response rating, Pigweed [4, 16]: 0
Crabgrass, Large plant response rating [5, 13]: 0
Crabgrass, Large plant response rating [5, 14]: 10
Plant response rating, Crabgrass, Large [5, 15]: 0
Plant response rating, Crabgrass, Large [5, 16]: 0
Barnyardgrass plant response rating [6, 13]: 0
Barnyardgrass plant response rating [6, 14]: 10
Plant response rating, Barnyardgrass [6, 15]: 0
Plant response rating, Barnyardgrass [6, 16]: 0
Wheat plant response rating [7, 13]: 0
Wheat plant response rating [7, 14]: 0
Plant response rating, Wheat [7, 15]: 0
Plant response rating, Wheat [7, 16]: 0
Corn plant response rating (corn (Zea mays); [13]): 0
Corn plant response rating (corn (Zea mays); [14]): 10
Plant response rating, Corn (corn (Zea mays); [15]): 0
Plant response rating, Corn (corn (Zea mays); [16]): 0
Plant response rating, Ducksalad [8, 11]: 0
Plant response rating, Ducksalad [8, 12]: 0
Foxtail, Giant plant response rating [9, 13]: 0
Foxtail, Giant plant response rating [9, 14]: 10
Plant response rating, Foxtail, Giant [9, 15]: 0
Plant response rating, Foxtail, Giant [9, 16]: 10
Velvetleaf plant response rating [10, 13]: 0
Velvetleaf plant response rating [10, 14]: 10
Plant response rating, Velvetleaf [10, 15]: 0
Plant response rating, Velvetleaf [10, 16]: 0
